# Measurements: patent publication US8759546B2, “Physical nano-complexes for preventing and treating cancer and method for manufacturing the same” (Gold Nanotech Inc., priority 2012, dated 2014)
# Columns and labels:
# [1] = superoxide radical scavenging effect; format: biochemical; conditions: compared to vitamin E alone
# Text: Refer to FIG. 2 for a schematic diagram of the anti-oxidant effect of the EGCG-nanogold complexes.
# [2] = test system: bladder cancer cells (MBT-2); test: viability of MBT-2 cells at 48 hour post-treatment; format: cell-based
# Protocol: (§1) Firstly, to evaluate the tumor cytotoxicity of EGCG and/or nanogold, we examined viabilities of bladder cancer cells (MBT-2) and African green monkey kidney cells (Vero cell acts as a normal cell) at 48 hour post-EGCG or -nanogold treatment. Referring to FIG. 3, which is a schematic diagram of the cell viability of Vero cells and MBT-2 cells under different treating concentration of EGCG and nanogold. […] Refer to FIG. 4 for a schematic diagram of the concentrations of EGCG and nanogold mediated the 50% of cell growth inhibition of Vero cell and MBT-2 cell (IC50). […] In contrast, the Vero cell numbers were not changed in the presence of EGCG or nanogold.
# [3] = test system: African green monkey kidney cells (Vero cell); test: viability of Vero cells at 48 hour post-treatment; format: cell-based; conditions: in the presence of EGCG or nanogold
# Protocol: as §1
# MBT-2 cells [4] = test: apoptosis detection by Annexin-V and PI staining, flow cytometry; format: cell-based; conditions: in 48 hours
# Text: Cell apoptosis features some morphological alterations, such as chromatin condensation, membrane blebbing, inter-nucleosomal degradation of DNA, and apoptotic body formation. Previous study reported that EGCG can induce apoptosis via the PI3K/Akt pathway and Bcl-2 family proteins in T24 human bladder cancer cells. […] The cells in test were subjected to flow cytometry analysis, whereby apoptotic bodies can be detected by Annexin-V and PI staining Refer to FIG. […]
# MBT-2 cells [5] = test: cell cycle of MBT-2 cells; format: cell-based
# Protocol: Following, the mechanism of the EGCG and nanogold mediated cell apoptosis was investigated. Refer to FIG. 7 for a table of the cell cycle of MBT-2 cell treated by various concentrations of EGCG and nanogold. […] The MBT-2 cells otherwise underwent G0/G1 arrest when the doses of EGCG (50 μM) and nanogold (2 ppm) were increased.
# caspase-3 and -7 = test: Caspase-3/7 activity in MBT-2 cells; format: cell-based; conditions: 12 and 24 hours treatment
# Protocol: To assure that the EGCG and nanogold mediated apoptosis are triggered by the caspase effectors, we then examined expressions of the apoptosis-dependent enzymes caspase-3 and -7. Refer to FIG. 8 for a schematic diagram of Caspase-3/7 activity after EGCG and/or nanogold treatment for 12 and 24 hours.
substance,measurement,setting,value
epigallocatechin-3-gallate [EGCG],superoxide radical scavenging activity,[1],significant superoxide radical scavenging activity
same,"MBT-2 cell numbers, % of the control","[2]; EGCG and nanogold 2 ppm, combined or alone",49.7%
same,viability of MBT-2 cells,[2]; different treating concentrations,reduce the viability of MBT-2 cells in a concentration-dependent manner
same,Vero cell numbers,[3],not changed
same,percentage of Annexin-V-positive cells,MBT-2 cells [4],16.6%
same,cell cycle arrest,"MBT-2 cells [5]; increased doses: EGCG 50 μM, nanogold 2 ppm",G0/G1 arrest
same,cell cycle arrest,MBT-2 cells [5]; lower doses,arrested in the S phase
same,"caspase-3 and -7, fold increase versus the vehicle-alone controls",caspase-3 and -7,2.42±0.43 fold
